Test results from patent US9868763B2, “Modulators of protease activated receptors” (The University of Queensland, priority 2011, dated 2018).
Entries after “also recorded” stand apart in the source; their conditions may differ. Where two headings read alike, the source gives them in different places.

Tests used:
MIN6 beta cells = assay: Glucose-stimulated insulin secretion (GSIS); format: cell-based, mouse; settings: 52 as pre-treatment before 2f-LIGRLO-NH2
Protocol: Rat pancreas and mouse MIN6 beta cells were cultured in DMEM (25 mM glucose) supplemented with 15% fetal calf serum, 10 U/mL penicillin, 10 U/mL streptomycin, 2 mM L-glutamine and […] 2-mercaptoethanol. MIN6 beta cells were passaged and harvested using non-enzymatic cell dissociation solution (Sigma-Aldrich). Glucose-stimulated insulin secretion (GSIS) was performed as described next. MIN6 beta cells were seeded at 0.8×106 mL in a 96-well plate and cultured for 48 h. Cells were washed twice with glucose-free Krebs buffer (NaCl 119 mM, KCl 4.74 mM, CaCl2 2.54 mM, MgCl2 1.19 mM, KH2PO4 1.19 mM, NaHCO3 25 mM, HEPES (pH 7.4) 10 mM and 0.05% BSA). Cells were pre-treated with compound 52 for 30 min with Krebs buffer supplemented with 2.5 mM glucose. After incubation, cells were washed twice with glucose-free Krebs buffer. Glucose (2.5 mM and 25 mM) and compounds were added at specified concentration and incubated for 1 h. Supernatants were collected and insulin concentrations were determined by ELISA (Abeam).

β-tryptase = target: T1, β-tryptase (Homo sapiens, UniProt Q15661); assay: Tryptase activity assay; format: biochemical; settings: 20 μM; substrate tosyl-Gly-Pro-Arg-pNA
T1 construct: purchased Promega
Protocol: β-tryptase (10 ng/μL, 100 μL) was incubated±PAR2 antagonist 52 (20 μM) for 15 min, to which substrate tosyl-Gly-Pro-Arg-pNA (250 μM) was added. Absorbance was measured as optical density at 405 nm (FLUOstar Optima, BMG labtech, Aust.) every 41 s for 1 h.

[1] = Pharmacokinetics, four consecutive daily oral doses; format: in vivo, Wistar rat; settings: 10 mg/kg/day p.o. for 4 days
Protocol: Male Wistar rats were surgically implanted with a jugular vein catheter. Blood samples (heparinised) were collected from the catheter of an unanaesthetised, unrestrained rat, 5 min prior to PAR2 antagonist 52 administration (10 mg/kg p.o.) and 30 min, 1-6, 8 and 24 h post-administration. Rats not implanted with a catheter were given PAR2 antagonist 52 (10 mg/kg/day p.o.) four days consecutively (n=6). On the fifth day, plasma, cerebrospinal fluid (CSF), paw tissue and intraperitoneal adipose were collected for LCMS analysis.

Water solubility = format: physicochemical
[2] = system: collagen-induced arthritis; assay: Collagen-induced arthritis; format: in vivo, Wistar rat
Protocol: Protocols were based on those described (Lin H S et al., Br J Pharmacol 2007, 150(7):862-72; Nishikawa M et al., Arthritis Rheum 2003, 48(9):2670-81). Female Wistar rats (200-250 g, n′ 14) were immunised on Day 0 with Bovine nasal collagen (200 μg, 50:50 0.05 M acetic acid and Freund's incomplete adjuvant, s.c. tail base). Sham animals received vehicle only (no collagen; 50:50 0.05 M acetic acid and Freund's incomplete adjuvant, s.c. tail base). Boosters of the same dose were given on Day 7. Daily oral dosage of PAR-2 antagonist 52 (10 mg/kg in olive oil, 500 μL, p.o. weight adjusted) or olive oil vehicle (arthritic control, and sham) began on Day 7. Paw thickness and width (as above), body weight, disease activity score and mechanical nociceptive thresholds were measured every second day from Day 10-28.
Disease Activity Index (DAI) and mechanical hyperalgesia were assessed and qualitatively scored 0 to 4+. The DAI is based on multiple characteristic disease pathologies, incorporating changes in mobility, inflammation and discomfort/pain (maximum total score of 18). Plantar mechanical nociceptive thresholds were measured using Semmes Weinstein Von Frey Anaesthesiometers (Touch Test Sensory Evaluators, Stoelting, Ill., USA).
Day 28 all rats were euthanised and hind paws fixed in 4% paraformaldehyde, decalcified and embedded in paraffin wax and cut at […]. Sections were stained with H&E for general tissue architecture, with Masson's Trichrome for collagen loss or with alcian blue/safranin-O for mast cells (42). Tissue macrophages were labeled using ED1 monoclonal antibody (for immature rat macrophage/monocytes, Serotec) using standard IHC techniques. Microscopic analysis and cell counts were made from multiple (>6) images/paw with aid of ImageJ 1.42q software.

[3] = system: SLIGRL-NH2-induced acute colonic inflammation; assay: PAR2-induced acute colonic inflammation; format: in vivo, Wistar rat; settings: 10 mg/kg p.o.
Protocol: A polyethylene catheter (1.7-mm outer diameter) was inserted 8 cm into the colon via the anus, through which SLIGRL-NH2 (1 mg/rat) or saline vehicle (500 l) was administered. Rats remained anesthetized for 10 min and maintained at an angle of 40° to prevent leakage from the anus. Rats were allowed to recover with food and water supplied. All rats were terminated at 10 h after induction and scored appropriately for disease activity index (DAI) and macroscopic disease (see Disease Activity Index below). Colon tissue was taken for wet/dry ratio and MPO assay.
DAI for both acute and chronic models was assessed and scored by an expert blinded to treatments. Scores incorporated mobility, gastrointestinal pathology, discomfort, and generalized sickness behaviour criteria (each scored 0-3). Any animal that reached stage 3 in any criteria was euthanized by CO2 inhalation and recorded as a disease-related mortality. Scores were summed and expressed as total disease score (maximum 12). DAI was measured at endpoint only (10 h) in the acute study and daily in the chronic TNBS study.
Colons were dissected post-mortem and given a macroscopic disease score based on that described previously (Bobin-Dubigeon et al., 2001) with some minor alterations (maximal score 14). The entire colon length was removed between the ileocolic and colorectal junction. Length and maximal distension width were measured. […]

[4] = alcian blue/safranin-O staining

T1 sequence (Q15661 31-275): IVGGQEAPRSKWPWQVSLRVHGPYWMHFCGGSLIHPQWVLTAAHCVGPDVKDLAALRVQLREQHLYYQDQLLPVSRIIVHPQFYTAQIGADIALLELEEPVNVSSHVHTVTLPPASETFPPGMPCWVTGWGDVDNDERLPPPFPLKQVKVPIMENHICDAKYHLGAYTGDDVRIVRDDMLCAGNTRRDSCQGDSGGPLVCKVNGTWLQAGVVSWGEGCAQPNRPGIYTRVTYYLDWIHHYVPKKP

CC[C@H](C)[C@@H](NC(=O)[C@H](CC1CCCCC1)NC(=O)c1ccno1)C(=O)N1CCC2(C=Cc3ccccc32)CC1 [Compound 52]
glucose-stimulated insulin secretion (MIN6 beta cells): normalised insulin secretion | inhibition of proteolytic activity of β-tryptase (β-tryptase): did not inhibit; also recorded: not inhibited | Cp after fourth dose greater than the single-dose Cp at 24 h [1]: ~30% | concentration at 5 day ([1]; Wistar, rat, cerebrospinal fluid, oral, read-out: concentration in cerebral spinal fluid (none detected, LCMS/MS detection limit)): < 1.8 nM | Kp at 24 h ([1]; Wistar, rat, intraperitoneal adipose / plasma, oral, read-out: intraperitoneal adipose concentration as share of Cp at 24 h): ~0.3 | concentration at 5 day ([1]; Wistar, rat, intraperitoneal adipose, oral, read-out: concentration in intraperitoneal adipose): 150 ± 20 nM | concentration at 24 h ([1]; Wistar, rat, plasma, oral, read-out: plasma concentration Cp at 24 h after the fourth dose): 500 ± 100 nM | water solubility (Water solubility): not water soluble enough to administer i.v. | collagen-induced rat arthritis ([2]; 10 mg/kg/day p.o.): attenuated collagen-induced rat arthritis | lowered mechanical nociceptive threshold (mechanical hyperalgesia) ([2]; 10 mg/kg/day p.o., Day 28): prevented the mechanical hyperalgaesia; also recorded: removed | maximal hind paw swelling ([2]; 10 mg/kg/day p.o., Day 28, change from baseline): 25±9% | maximal DAI (disease activity index) ([2]; 10 mg/kg/day p.o., Day 28, maximum total score 18): 1.6±0.9 | animals affected by arthritic signs ([2]; 10 mg/kg/day p.o., by Day 28): 60% | degranulated mast cells of all mast cells [2, 4]: less than 5% | inactive mast cells of all mast cells [2, 4]: ~80% | collagen loss (Masson's Trichrome) ([2]; compared to CIA-controls): significantly reduced collagen loss | histopathological changes (H&E, tibia-talus joints) ([2]; daily administration): almost completely prevented | arthritic-like up regulation of ED1-macrophages ([2]; rat, in vivo): prevented | acute colonic inflammation induced by SLIGRL-NH2 [3]: inhibited | edema, mucin depletion, PAR2 receptor internalization and mastocytosis [3]: markedly reduced
